Experimental data reported in ChEMBL document CHEMBL1147447, “Discovery and in vitro evaluation of potent TrkA kinase inhibitors: oxindole and aza-oxindoles” (Bioorg Med Chem Lett, 2004).
pIC50: −log10 of the molar value. Calls of active or inactive are those of the source. No cut-off for these calls is given here.

Legend:
[1] = target: T1, High affinity nerve growth factor receptor (Homo sapiens, UniProt P04629); experiment: (§1) Inhibition of receptor Tyrosine kinase A, TrkA (nerve growth factor receptor)
Target sequence in this assay (P04629 whole entry): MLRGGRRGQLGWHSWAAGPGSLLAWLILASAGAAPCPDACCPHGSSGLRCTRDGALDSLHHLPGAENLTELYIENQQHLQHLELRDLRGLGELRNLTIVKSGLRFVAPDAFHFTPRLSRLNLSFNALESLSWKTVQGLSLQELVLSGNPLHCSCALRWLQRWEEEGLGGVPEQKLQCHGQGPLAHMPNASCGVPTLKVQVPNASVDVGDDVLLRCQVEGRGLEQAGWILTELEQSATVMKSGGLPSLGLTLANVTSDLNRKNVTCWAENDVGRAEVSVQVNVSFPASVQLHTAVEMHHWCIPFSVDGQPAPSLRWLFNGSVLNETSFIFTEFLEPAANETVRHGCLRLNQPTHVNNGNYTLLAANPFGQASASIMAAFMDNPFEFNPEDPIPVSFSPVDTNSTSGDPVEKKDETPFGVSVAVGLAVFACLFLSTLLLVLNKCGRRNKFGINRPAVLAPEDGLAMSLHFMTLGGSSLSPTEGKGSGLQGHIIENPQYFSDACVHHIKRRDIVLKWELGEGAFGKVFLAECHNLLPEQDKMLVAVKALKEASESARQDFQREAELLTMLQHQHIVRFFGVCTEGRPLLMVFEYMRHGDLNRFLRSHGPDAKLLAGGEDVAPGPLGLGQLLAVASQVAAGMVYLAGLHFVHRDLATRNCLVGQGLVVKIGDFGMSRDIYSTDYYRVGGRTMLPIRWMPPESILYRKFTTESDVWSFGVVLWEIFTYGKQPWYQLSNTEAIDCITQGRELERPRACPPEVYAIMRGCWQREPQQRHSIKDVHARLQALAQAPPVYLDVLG

[2] = target: RAF proto-oncogene serine/threonine-protein kinase (Homo sapiens, UniProt P04049); experiment: Inhibition of c-Raf1 kinase
[3] = target: Cyclin-dependent kinase 2/cyclin A (Homo sapiens, UniProt P24941); experiment: Inhibition of Cyclin-dependent kinase 2 cyclin A; assay type: protein-complex assay
[4] = Inhibition prostate cancer growth in 10 diverse animal models; assay type: functional, tissue-based; conditions: Prostate gland
[5] = target: T1, High affinity nerve growth factor receptor; experiment: as §1; remark: listed apart in the source
Target sequence in this assay (P04629 33-796 limits assumed): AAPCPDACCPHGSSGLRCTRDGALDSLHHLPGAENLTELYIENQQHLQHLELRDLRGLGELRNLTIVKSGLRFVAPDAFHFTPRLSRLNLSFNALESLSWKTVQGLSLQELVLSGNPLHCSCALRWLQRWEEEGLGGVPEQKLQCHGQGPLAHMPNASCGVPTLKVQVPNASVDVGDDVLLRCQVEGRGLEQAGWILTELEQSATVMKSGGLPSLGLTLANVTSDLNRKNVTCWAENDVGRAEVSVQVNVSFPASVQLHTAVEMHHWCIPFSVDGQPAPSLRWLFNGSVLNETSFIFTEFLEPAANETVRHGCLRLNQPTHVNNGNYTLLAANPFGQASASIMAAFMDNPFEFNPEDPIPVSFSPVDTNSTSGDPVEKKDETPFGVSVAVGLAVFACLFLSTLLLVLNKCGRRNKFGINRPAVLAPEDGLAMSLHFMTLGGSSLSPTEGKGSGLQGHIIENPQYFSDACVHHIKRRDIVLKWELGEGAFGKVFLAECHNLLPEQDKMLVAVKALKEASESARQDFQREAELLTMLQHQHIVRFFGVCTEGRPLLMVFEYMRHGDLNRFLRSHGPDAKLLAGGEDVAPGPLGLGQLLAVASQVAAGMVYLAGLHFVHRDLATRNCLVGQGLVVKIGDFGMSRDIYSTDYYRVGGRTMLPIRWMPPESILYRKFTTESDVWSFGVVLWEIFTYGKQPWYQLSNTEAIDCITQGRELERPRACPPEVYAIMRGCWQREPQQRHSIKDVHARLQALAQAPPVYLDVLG

RAF proto-oncogene serine/threonine-protein kinase, sequence (P04049 whole entry): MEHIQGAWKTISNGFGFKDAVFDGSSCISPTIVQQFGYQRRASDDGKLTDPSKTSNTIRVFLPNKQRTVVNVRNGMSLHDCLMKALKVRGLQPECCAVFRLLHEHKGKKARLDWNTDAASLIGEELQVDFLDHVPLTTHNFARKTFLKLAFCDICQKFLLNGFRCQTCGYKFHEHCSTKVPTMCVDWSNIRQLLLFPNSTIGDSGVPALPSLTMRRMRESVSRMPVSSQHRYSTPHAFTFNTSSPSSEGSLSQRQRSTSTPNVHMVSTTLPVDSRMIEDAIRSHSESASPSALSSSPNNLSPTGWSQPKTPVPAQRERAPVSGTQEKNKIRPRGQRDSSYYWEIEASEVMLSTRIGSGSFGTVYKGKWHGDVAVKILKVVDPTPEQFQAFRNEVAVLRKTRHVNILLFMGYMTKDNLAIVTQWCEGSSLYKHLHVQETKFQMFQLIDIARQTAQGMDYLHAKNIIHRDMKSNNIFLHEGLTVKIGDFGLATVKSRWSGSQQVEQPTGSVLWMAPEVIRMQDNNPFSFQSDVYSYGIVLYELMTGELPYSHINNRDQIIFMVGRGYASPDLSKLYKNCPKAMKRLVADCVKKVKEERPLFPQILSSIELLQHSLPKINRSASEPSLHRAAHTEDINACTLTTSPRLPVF

Structure (SMILES)	pIC50 [1]	pIC50 [2]	pIC50 [3]	Activity [4]	Activity [5]
O=C1Nc2ccc(I)cc2C1=Cc1cc(Br)c(O)c(Br)c1 [GW305074X]	5.33				
C[C@]12O[C@H](C[C@]1(O)CO)n1c3ccccc3c3c4c(c5c6ccccc6n2c5c31)CNC4=O				Active	Active
NS(=O)(=O)c1cccc(N/C=C2\C(=O)Nc3ccccc32)c1 [GW275616X]	7.20	< 5.00	< 5.00		
Cn1cc(/C=C2\C(=O)Nc3cccnc32)c2ccccc21		< 4.92			
O=C1Nc2ncc(Br)cc2/C1=C/c1cccc(Oc2ccccc2)c1	7.21	< 4.30	< 4.30		

Further lines, with some results ahead:

pIC50 [1]	pIC50 [2]	pIC50 [3]	Structure (SMILES)	Activity [4]	Activity [5]
8.22	< 5.00	5.10	O=C1Nc2ccccc2/C1=C1\CCc2cc(O)ccc21		
8.05			O=C1Nc2ccc3ncsc3c2/C1=C/Nc1ccc(S(=O)(=O)Nc2ccccn2)cc1		
8.15	< 5.00	5.60	O=C1Nc2ccccc2/C1=C/Nc1ccc2[nH]c(=O)[nH]c2c1 [GW284408X]		
7.92	5.14	< 5.22	Cn1cc(/C=C2\C(=O)Nc3ncccc32)c2ccccc21		
8.10	< 5.00	5.14	O=C1Nc2ccccc2/C1=C/Nc1ccc(-n2cncn2)cc1 [GW301789X]		
8.22	< 5.00	5.10	CS(=O)(=O)Nc1ccc(N/C=C2\C(=O)Nc3ccccc32)cc1 [GW278681X]		
8.10	6.15	4.98	COc1ccccc1-c1cc(/C=C2\C(=O)Nc3ncc(Br)cc32)cc(Br)c1O [GW442130X]		
